Results on ten compounds are retold here after ChEMBL document CHEMBL1201862, “PubChem BioAssay data set” (2004).

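Test compounds were applied to cells in 96-well plates for 48 hours at 5 doses. GI50 is the concentration that inhibits growth by half.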 The source made the active and inactive calls. No stated cut-off is given here; in the data, active = GI50 up to about 1.1 µM and inactive = higher. Where only a bound is given, the exact number is not on record here.

Test systems include 786-0; A549; ACHN; CAKI-1; CCRF-CEM; HCT-116; K562; MCF7; Malme-3M; NCI-H226; NCI-H460; OVCAR-5; SF-268; SF-539; SK-MEL-28; SN12C; SNB-19; SNB-75; T47D; U-251.
Common to all, as to test: NCI anticancer screen, dose series, 48 h

Consider `CCOC(=O)C(NC(C)=O)(Nc1ccc(S(N)(=O)=O)cc1)C(F)(F)F` (stereo unspecified), for which the GI50 in the experiment on 786-0, with A549, in the experiment with ACHN, with CAKI-1, in the experiment with CCRF-CEM and in the experiment on HCT-116 was > 100 µM (inactive) each time. Further, the GI50 in the experiment with K562, with MCF7, in the experiment with Malme-3M, with NCI-H226, in the experiment on NCI-H460 and in the experiment on OVCAR-5 was > 100 µM (inactive) in each case. Moreover, the GI50 in the experiment with SF-268, in the experiment on SF-539, in the experiment with SK-MEL-28, in the experiment on SN12C, in the experiment on SNB-19 and in the experiment with SNB-75 was > 100 µM (inactive) throughout. The GI50 in the experiment with T47D and in the experiment on U-251 was > 100 µM (inactive) throughout.
For the compound `CC1CNC(c2cccc(-c3nc(-c4cccc(C5=NC(C)CN5)c4)nc(N(C)C)n3)c2)=N1` (stereo unspecified), the GI50 with 786-0 was 1.53 µM (inactive); with A549, 2.69 µM (inactive); in the experiment on ACHN it was 3.12 µM (inactive); in the experiment with CAKI-1, 18.1 µM (inactive); in the experiment on CCRF-CEM it was 0.587 µM (active); in the experiment on HCT-116, 0.491 µM (active). The GI50 with K562 is 0.682 µM (active); in the experiment with MCF7, 0.78 µM (active); in the experiment on Malme-3M it was 3.87 µM (inactive); in the experiment on NCI-H226, 1.9 µM (inactive); in the experiment with NCI-H460, 1.94 µM (inactive); in the experiment with OVCAR-5, 2.57 µM (inactive). The GI50 is 2.06 µM (inactive) in the experiment with SF-268; 0.454 µM (active) with SF-539; 3.13 µM (inactive) with SK-MEL-28; 0.948 µM (active) in the experiment with SN12C; 0.752 µM (active) in the experiment on SNB-19; 1.91 µM (inactive) with SNB-75. In addition, the results for the GI50 in the experiment with T47D and in the experiment with U-251 were 2.5 µM (inactive) and 0.653 µM (active), respectively.
Regarding `O=C(/C=C/c1ccccc1)NNC(=O)c1c(Cl)c(Cl)c(Cl)c(Cl)c1-c1nc2ccccc2[nH]1`, the GI50 is 4.5 µM (inactive) in the experiment on 786-0; 0.0966 µM (active) in the experiment with A549; 32.5 µM (inactive) in the experiment on ACHN; 33.3 µM (inactive) in the experiment with CAKI-1; 27 µM (inactive) with CCRF-CEM; 22.1 µM (inactive) in the experiment on HCT-116. The GI50 with K562 is 25.2 µM (inactive); in the experiment with MCF7, 24.2 µM (inactive); in the experiment on Malme-3M it was 26.5 µM (inactive); in the experiment with NCI-H226, 13.9 µM (inactive); with NCI-H460 it was 23.7 µM (inactive); with OVCAR-5, 25 µM (inactive). The GI50 in the experiment with SF-268 was 51.8 µM (inactive); with SF-539, 22.3 µM (inactive); in the experiment on SK-MEL-28 it was 39.5 µM (inactive); in the experiment on SN12C it was 21.6 µM (inactive); with SNB-75, 18.2 µM (inactive); in the experiment with T47D, 18.4 µM (inactive).
For the compound `Oc1c(N2CCOCC2)cc(-c2cc(N3CCOCC3)c(O)c3ccccc23)c2ccccc12`, the GI50 with 786-0 was 1.63 µM (inactive); in the experiment on A549, 2.26 µM (inactive); in the experiment on ACHN, 2.93 µM (inactive); with CAKI-1, 2.69 µM (inactive); in the experiment with CCRF-CEM, 1.48 µM (inactive); with HCT-116, 2.16 µM (inactive). Besides, the GI50 in the experiment with K562 is 1.88 µM (inactive); with MCF7 it was 2.12 µM (inactive); in the experiment with Malme-3M it was 0.486 µM (active); in the experiment on NCI-H226 it was 10.1 µM (inactive); in the experiment on NCI-H460, 2.83 µM (inactive); in the experiment on OVCAR-5, 2.86 µM (inactive). Also, the GI50 with SF-268 was 3.33 µM (inactive); in the experiment on SF-539, 2.09 µM (inactive); with SK-MEL-28 it was 1.75 µM (inactive); in the experiment with SN12C it was 1.58 µM (inactive); in the experiment on SNB-19, 3.61 µM (inactive); in the experiment on SNB-75, 2.26 µM (inactive). The GI50 with T47D is 12.8 µM (inactive); in the experiment on U-251 it was 1.82 µM (inactive).
For `O=C(CCOS(=O)(=O)CF)N1CCN(C(=O)CCOS(=O)(=O)CF)CC1`, the GI50 in the experiment with 786-0 is 28.4 µM (inactive); in the experiment with A549, 59 µM (inactive); with ACHN, 17.1 µM (inactive); in the experiment on CAKI-1, 5.36 µM (inactive); with CCRF-CEM, 3.27 µM (inactive); in the experiment on HCT-116, 57 µM (inactive). The GI50 with K562 was 56.5 µM (inactive); in the experiment with MCF7, 18.6 µM (inactive); in the experiment on Malme-3M, > 57.3 µM (inactive); with NCI-H226, > 88.7 µM (inactive); in the experiment on NCI-H460, 5.27 µM (inactive); in the experiment with OVCAR-5, > 100 µM (inactive). Besides, the GI50 in the experiment with SF-268 was 24.4 µM (inactive); with SF-539 it was 28.8 µM (inactive); in the experiment with SK-MEL-28, > 100 µM (inactive); in the experiment with SN12C it was 35.1 µM (inactive); in the experiment on SNB-19, 58.3 µM (inactive); in the experiment on SNB-75, 10.1 µM (inactive). The GI50 in the experiment with T47D was 43.6 µM (inactive); with U-251, 29.8 µM (inactive).
As to `CCOC(CN(C)C(=O)Nc1ccc(Cl)c(Cl)c1)OCC`, the GI50 with 786-0, in the experiment with A549, in the experiment on ACHN, with CAKI-1, in the experiment with CCRF-CEM and in the experiment on HCT-116 was > 10 µM (inactive) throughout. Further, the GI50 with K562, with MCF7, in the experiment with Malme-3M, in the experiment on NCI-H226, in the experiment on NCI-H460 and in the experiment on SF-268 was > 10 µM (inactive) throughout. Moreover, the GI50 in the experiment with SF-539, with SK-MEL-28, in the experiment with SN12C, in the experiment on SNB-19, in the experiment on SNB-75 and in the experiment with T47D was > 10 µM (inactive) throughout. Besides, the GI50 with U-251 was > 10 µM (inactive).
Regarding `COc1cc2nc(-c3cccs3)oc(=O)c2cc1OC`, the GI50 is 94 µM (inactive) with 786-0; > 100 µM (inactive) with A549; > 100 µM (inactive) with ACHN; > 100 µM (inactive) in the experiment on CAKI-1; > 100 µM (inactive) in the experiment on CCRF-CEM; 86.5 µM (inactive) in the experiment on HCT-116. Besides, the GI50 was > 100 µM (inactive) in the experiment with K562; > 100 µM (inactive) in the experiment on MCF7; > 100 µM (inactive) in the experiment with Malme-3M; 50.7 µM (inactive) with NCI-H226; > 100 µM (inactive) in the experiment on NCI-H460; > 100 µM (inactive) with OVCAR-5. In addition, the GI50 in the experiment on SF-268 was 61.7 µM (inactive); in the experiment with SF-539 it was 57.3 µM (inactive); in the experiment with SK-MEL-28, > 100 µM (inactive); with SN12C, > 100 µM (inactive); in the experiment with SNB-19, 47.3 µM (inactive); with SNB-75, > 100 µM (inactive). The values for the GI50 in the experiment with T47D and in the experiment on U-251 were > 100 µM (inactive) and 38.5 µM (inactive), respectively.
As for `Nc1ncnc2c1nc(Cl)n2[C@@H]1O[C@@H]2COP(=O)(O)O[C@H]2[C@H]1O` [TOCLADESINE], the GI50 in the experiment with 786-0 was 8.85 µM (inactive); with A549, 22.8 µM (inactive); in the experiment with ACHN it was 5.05 µM (inactive); with CAKI-1, 3.61 µM (inactive); with CCRF-CEM it was 3.48 µM (inactive); in the experiment with HCT-116, 3.01 µM (inactive). Also, the GI50 was 2.82 µM (inactive) in the experiment with K562; 8.11 µM (inactive) in the experiment on MCF7; 152 µM (inactive) in the experiment with Malme-3M; 6.18 µM (inactive) with NCI-H226; 7.03 µM (inactive) in the experiment on NCI-H460; 27.7 µM (inactive) in the experiment with OVCAR-5. The GI50 in the experiment with SF-268 is 32 µM (inactive); in the experiment on SF-539 it was 49 µM (inactive); with SK-MEL-28, 295 µM (inactive); in the experiment on SN12C, 12.6 µM (inactive); in the experiment with SNB-19 it was 122 µM (inactive); in the experiment with SNB-75, 31.8 µM (inactive). The GI50 in the experiment with T47D was 14.7 µM (inactive); in the experiment on U-251, 67.8 µM (inactive).
Turning to `CC(C)OC(=O)OCSc1ccccc1/N=C/c1cccc([N+](=O)[O-])c1`, the GI50 in the experiment on 786-0, in the experiment with A549, in the experiment on ACHN, with CAKI-1, with CCRF-CEM and with HCT-116 was > 10 µM (inactive) in each case. The GI50 in the experiment with K562, with MCF7, with Malme-3M, in the experiment on NCI-H226, with NCI-H460 and in the experiment on OVCAR-5 was > 10 µM (inactive) throughout. Besides, the GI50 in the experiment on SF-268, in the experiment with SF-539, with SK-MEL-28, with SN12C, in the experiment on SNB-19 and in the experiment with SNB-75 was > 10 µM (inactive) throughout. Also, the GI50 in the experiment on T47D and in the experiment on U-251 was > 10 µM (inactive) in each case.
As for `CC1OCC2OC(C)OC(C3C4=C(CC(C)(C)CC4=O)OC4=C3C(=O)CC(C)(C)C4)C2O1` (stereo unspecified), the GI50 in the experiment on 786-0, in the experiment with A549, in the experiment with ACHN, with CAKI-1, with CCRF-CEM and with HCT-116 was > 100 µM (inactive) in each case. Also, the GI50 with K562, in the experiment with MCF7, in the experiment on Malme-3M, with NCI-H226, with NCI-H460 and in the experiment with OVCAR-5 was > 100 µM (inactive) throughout. For the same compound, the GI50 in the experiment with SF-268, with SF-539, with SK-MEL-28, with SN12C, in the experiment on SNB-19 and with SNB-75 was > 100 µM (inactive) each time. Further, the GI50 with T47D was > 100 µM (inactive).
